# Active and inactive are the calls of the source. No rule for the calls is given here.
# Tested on: CCRIS mutagenicity, Ames/micronucleus/aberration tests
# Assay: CCRIS mutagenicity studies
# [1] = Test System: AMES SALMONELLA TYPHIMURIUM, Strain/Indicator: TA98, Metabolic Activation: NONE, Method: STANDARD PLATE
# [2] = Test System: AMES SALMONELLA TYPHIMURIUM, Strain/Indicator: TA100, Metabolic Activation: NONE, Method: STANDARD PLATE
# [3] = Test System: AMES SALMONELLA TYPHIMURIUM, Strain/Indicator: TA1535, Metabolic Activation: NONE, Method: STANDARD PLATE
# [4] = Test System: AMES SALMONELLA TYPHIMURIUM, Strain/Indicator: TA1537, Metabolic Activation: NONE, Method: STANDARD PLATE
# [5] = Test System: AMES SALMONELLA TYPHIMURIUM, Strain/Indicator: TA97, Metabolic Activation: NONE, Method: PREINCUBATION
# [6] = Test System: AMES SALMONELLA TYPHIMURIUM, Strain/Indicator: TA98, Metabolic Activation: NONE, Method: PREINCUBATION
# [7] = Test System: AMES SALMONELLA TYPHIMURIUM, Strain/Indicator: TA100, Metabolic Activation: NONE, Method: PREINCUBATION
# [8] = Test System: AMES SALMONELLA TYPHIMURIUM, Strain/Indicator: TA1535, Metabolic Activation: NONE, Method: PREINCUBATION
smiles,measurement,setting,value
O=P([O-])([O-])OC(CCO)CCO.O=P([O-])([O-])OCC(O)CO.[Mn+2].[Mn+2],mutagenic call,[1],inactive; negative
same,mutagenic call,"Test System: AMES SALMONELLA TYPHIMURIUM, Strain/Indicator: TA98, Metabolic Activation: RAT, LIVER, S-9, AROCLOR 1254, Method: STANDARD PLATE",inactive; negative
same,mutagenic call,[2],inactive; negative
same,mutagenic call,"Test System: AMES SALMONELLA TYPHIMURIUM, Strain/Indicator: TA100, Metabolic Activation: RAT, LIVER, S-9, AROCLOR 1254, Method: STANDARD PLATE",inactive; negative
same,mutagenic call,[3],inactive; negative
same,mutagenic call,"Test System: AMES SALMONELLA TYPHIMURIUM, Strain/Indicator: TA1535, Metabolic Activation: RAT, LIVER, S-9, AROCLOR 1254, Method: STANDARD PLATE",inactive; negative
same,mutagenic call,[4],inactive; negative
same,mutagenic call,"Test System: AMES SALMONELLA TYPHIMURIUM, Strain/Indicator: TA1537, Metabolic Activation: RAT, LIVER, S-9, AROCLOR 1254, Method: STANDARD PLATE",inactive; negative
same,mutagenic call,"Test System: AMES SALMONELLA TYPHIMURIUM, Strain/Indicator: TA1538, Metabolic Activation: NONE, Method: STANDARD PLATE",inactive; negative
same,mutagenic call,"Test System: AMES SALMONELLA TYPHIMURIUM, Strain/Indicator: TA1538, Metabolic Activation: RAT, LIVER, S-9, AROCLOR 1254, Method: STANDARD PLATE",inactive; negative
same,mutagenic call,"Test System: E. COLI, Strain/Indicator: WP2, Metabolic Activation: NONE, Method: STANDARD PLATE",inactive; negative
same,mutagenic call,"Test System: E. COLI, Strain/Indicator: WP2, Metabolic Activation: RAT, LIVER, S-9, AROCLOR 1254, Method: STANDARD PLATE",inactive; negative
C=C1[C@@H]2CC[C@H]3[C@]4(C)CCC[C@@](C)(C(=O)O)[C@H]4CC[C@]3(C2)[C@H]1O,mutagenic call,"Test System: AMES SALMONELLA TYPHIMURIUM, Strain/Indicator: TM677, Metabolic Activation: RAT, LIVER, S-9, AROCLOR 1254, Method: PREINCUBATION",inactive; negative
c1ccc(Nc2ccccc2)cc1,mutagenic call,"End Point: In vitro chromosomal aberrations, Test System: Chinese hamster lung (CHL/IU) cells, Metabolic Activation: Rat, Liver, S9, Phenobarbital and 5,6-benzoflavone",active; positive (structural changes). toxicity at 0.14 mg/ml.
same,mutagenic call,"Test System: AMES SALMONELLA TYPHIMURIUM, Strain/Indicator: TA97, Metabolic Activation: HAMSTER, LIVER, S-9, AROCLOR 1254 (10%), Method: PREINCUBATION",inactive; negative
same,mutagenic call,"Test System: AMES SALMONELLA TYPHIMURIUM, Strain/Indicator: TA97, Metabolic Activation: HAMSTER, LIVER, S-9, AROCLOR 1254 (30%), Method: PREINCUBATION",inactive; negative
same,mutagenic call,[5],inactive; negative
same,mutagenic call,"Test System: AMES SALMONELLA TYPHIMURIUM, Strain/Indicator: TA97, Metabolic Activation: RAT, LIVER, S-9, AROCLOR 1254 (10%), Method: PREINCUBATION",inactive; negative
same,mutagenic call,"Test System: AMES SALMONELLA TYPHIMURIUM, Strain/Indicator: TA97, Metabolic Activation: RAT, LIVER, S-9, AROCLOR 1254 (30%), Method: PREINCUBATION",inactive; negative
same,mutagenic call,"Test System: AMES SALMONELLA TYPHIMURIUM, Strain/Indicator: TA98, Metabolic Activation: HAMSTER, LIVER, S-9, AROCLOR 1254 (10%), Method: PREINCUBATION",inactive; negative
same,mutagenic call,"Test System: AMES SALMONELLA TYPHIMURIUM, Strain/Indicator: TA98, Metabolic Activation: HAMSTER, LIVER, S-9, AROCLOR 1254 (30%), Method: PREINCUBATION",inactive; negative
same,mutagenic call,[6],inactive; negative
same,mutagenic call,"Test System: AMES SALMONELLA TYPHIMURIUM, Strain/Indicator: TA98, Metabolic Activation: RAT, LIVER, S-9, AROCLOR 1254 (10%), Method: PREINCUBATION",inactive; negative
same,mutagenic call,"Test System: AMES SALMONELLA TYPHIMURIUM, Strain/Indicator: TA98, Metabolic Activation: RAT, LIVER, S-9, AROCLOR 1254 (30%), Method: PREINCUBATION",inactive; negative
same,mutagenic call,"Test System: AMES SALMONELLA TYPHIMURIUM, Strain/Indicator: TA100, Metabolic Activation: HAMSTER, LIVER, S-9, AROCLOR 1254 (10%), Method: PREINCUBATION",inactive; negative
same,mutagenic call,"Test System: AMES SALMONELLA TYPHIMURIUM, Strain/Indicator: TA100, Metabolic Activation: HAMSTER, LIVER, S-9, AROCLOR 1254 (30%), Method: PREINCUBATION",inactive; negative
same,mutagenic call,[7],inactive; negative
same,mutagenic call,"Test System: AMES SALMONELLA TYPHIMURIUM, Strain/Indicator: TA100, Metabolic Activation: RAT, LIVER, S-9, AROCLOR 1254 (10%), Method: PREINCUBATION",inactive; negative
same,mutagenic call,"Test System: AMES SALMONELLA TYPHIMURIUM, Strain/Indicator: TA100, Metabolic Activation: RAT, LIVER, S-9, AROCLOR 1254 (30%), Method: PREINCUBATION",inactive; negative
same,mutagenic call,"Test System: AMES SALMONELLA TYPHIMURIUM, Strain/Indicator: TA1535, Metabolic Activation: HAMSTER, LIVER, S-9, AROCLOR 1254 (10%), Method: PREINCUBATION",inactive; negative
same,mutagenic call,"Test System: AMES SALMONELLA TYPHIMURIUM, Strain/Indicator: TA1535, Metabolic Activation: HAMSTER, LIVER, S-9, AROCLOR 1254 (30%), Method: PREINCUBATION",inactive; negative
same,mutagenic call,[8],inactive; negative
same,mutagenic call,"Test System: AMES SALMONELLA TYPHIMURIUM, Strain/Indicator: TA1535, Metabolic Activation: RAT, LIVER, S-9, AROCLOR 1254 (10%), Method: PREINCUBATION",inactive; negative
same,mutagenic call,"Test System: AMES SALMONELLA TYPHIMURIUM, Strain/Indicator: TA1535, Metabolic Activation: RAT, LIVER, S-9, AROCLOR 1254 (30%), Method: PREINCUBATION",inactive; negative
CC(=O)Nc1snc2ccccc12,mutagenic call,[1],inactive; negative
same,mutagenic call,"Test System: AMES SALMONELLA TYPHIMURIUM, Strain/Indicator: TA98, Metabolic Activation: S-9, Method: STANDARD PLATE",inactive; negative
same,mutagenic call,[2],inactive; negative
same,mutagenic call,"Test System: AMES SALMONELLA TYPHIMURIUM, Strain/Indicator: TA100, Metabolic Activation: S-9, Method: STANDARD PLATE",active; positive
same,mutagenic call,[3],inactive; negative
same,mutagenic call,"Test System: AMES SALMONELLA TYPHIMURIUM, Strain/Indicator: TA1535, Metabolic Activation: S-9, Method: STANDARD PLATE",inactive; negative
same,mutagenic call,[4],active; positive
same,mutagenic call,"Test System: AMES SALMONELLA TYPHIMURIUM, Strain/Indicator: TA1537, Metabolic Activation: S-9, Method: STANDARD PLATE",active; positive
N#CCCC#N,mutagenic call,"Test System: AMES SALMONELLA TYPHIMURIUM, Strain/Indicator: TA97, Metabolic Activation: HAMSTER, LIVER, S-9, AROCLOR 1254 (10 OR 30%), Method: PREINCUBATION",inactive; negative
same,mutagenic call,[5],inactive; negative
same,mutagenic call,"Test System: AMES SALMONELLA TYPHIMURIUM, Strain/Indicator: TA97, Metabolic Activation: RAT, LIVER, S-9, AROCLOR 1254 (10 OR 30%), Method: PREINCUBATION",inactive; negative
same,mutagenic call,"Test System: AMES SALMONELLA TYPHIMURIUM, Strain/Indicator: TA98, Metabolic Activation: HAMSTER, LIVER, S-9, AROCLOR 1254 (10 OR 30%), Method: PREINCUBATION",inactive; negative
same,mutagenic call,[6],inactive; negative
same,mutagenic call,"Test System: AMES SALMONELLA TYPHIMURIUM, Strain/Indicator: TA98, Metabolic Activation: RAT, LIVER, S-9, AROCLOR 1254 (10 OR 30%), Method: PREINCUBATION",inactive; negative
same,mutagenic call,"Test System: AMES SALMONELLA TYPHIMURIUM, Strain/Indicator: TA100, Metabolic Activation: HAMSTER, LIVER, S-9, AROCLOR 1254 (10 OR 30%), Method: PREINCUBATION",inactive; negative
same,mutagenic call,[7],inactive; negative
same,mutagenic call,"Test System: AMES SALMONELLA TYPHIMURIUM, Strain/Indicator: TA100, Metabolic Activation: RAT, LIVER, S-9, AROCLOR 1254 (10 OR 30%), Method: PREINCUBATION",inactive; negative
same,mutagenic call,"Test System: AMES SALMONELLA TYPHIMURIUM, Strain/Indicator: TA1535, Metabolic Activation: HAMSTER, LIVER, S-9, AROCLOR 1254 (10 OR 30%), Method: PREINCUBATION",inactive; negative
same,mutagenic call,[8],inactive; negative
same,mutagenic call,"Test System: AMES SALMONELLA TYPHIMURIUM, Strain/Indicator: TA1535, Metabolic Activation: RAT, LIVER, S-9, AROCLOR 1254 (10 OR 30%), Method: PREINCUBATION",inactive; negative
